Patent publication US10590106B2, “Certain chemical entities, compositions, and methods” (NeuPharma, Inc., priority 2012, dated 2020)
Read-outs that look alike come from different tables or passages of the source.

Experiments:
[1] = system: A375 cells; assay: Inhibition of cancer cell growth, MTT or MTS assay, A375; type: cell-based; details: Homo sapiens, A-375; 72 h incubation
Summary of the method: (§1)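 Cells in RPMI 1640 with 10% FBS were seeded at ~2000 (A375) or 4000 (A549, Colo205) per well, grown 24 h, then exposed to compound 72 h at 1% final DMSO. Read-out by MTT (570 nm) or MTS (490 nm). IC50 from concentration vs percent inhibition, triplicates.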

[2] = system: A549 cells; assay: Inhibition of cancer cell growth, MTT or MTS assay, A549; type: cell-based; details: Homo sapiens, 72 h incubation
Summary of the method: as §1

[3] = biological target: KDR (VEGFR2) (Homo sapiens (Human), UniProt P35968); assay: Inhibitory activity against kinase KDR, Z'-LYTE method (Invitrogen); type: biochemical; details: for inhibition at 1 µM: read-out: Inhibition (% inhibition at 1 μM) against KDR
KDR (VEGFR2), sequence (P35968 20-1356): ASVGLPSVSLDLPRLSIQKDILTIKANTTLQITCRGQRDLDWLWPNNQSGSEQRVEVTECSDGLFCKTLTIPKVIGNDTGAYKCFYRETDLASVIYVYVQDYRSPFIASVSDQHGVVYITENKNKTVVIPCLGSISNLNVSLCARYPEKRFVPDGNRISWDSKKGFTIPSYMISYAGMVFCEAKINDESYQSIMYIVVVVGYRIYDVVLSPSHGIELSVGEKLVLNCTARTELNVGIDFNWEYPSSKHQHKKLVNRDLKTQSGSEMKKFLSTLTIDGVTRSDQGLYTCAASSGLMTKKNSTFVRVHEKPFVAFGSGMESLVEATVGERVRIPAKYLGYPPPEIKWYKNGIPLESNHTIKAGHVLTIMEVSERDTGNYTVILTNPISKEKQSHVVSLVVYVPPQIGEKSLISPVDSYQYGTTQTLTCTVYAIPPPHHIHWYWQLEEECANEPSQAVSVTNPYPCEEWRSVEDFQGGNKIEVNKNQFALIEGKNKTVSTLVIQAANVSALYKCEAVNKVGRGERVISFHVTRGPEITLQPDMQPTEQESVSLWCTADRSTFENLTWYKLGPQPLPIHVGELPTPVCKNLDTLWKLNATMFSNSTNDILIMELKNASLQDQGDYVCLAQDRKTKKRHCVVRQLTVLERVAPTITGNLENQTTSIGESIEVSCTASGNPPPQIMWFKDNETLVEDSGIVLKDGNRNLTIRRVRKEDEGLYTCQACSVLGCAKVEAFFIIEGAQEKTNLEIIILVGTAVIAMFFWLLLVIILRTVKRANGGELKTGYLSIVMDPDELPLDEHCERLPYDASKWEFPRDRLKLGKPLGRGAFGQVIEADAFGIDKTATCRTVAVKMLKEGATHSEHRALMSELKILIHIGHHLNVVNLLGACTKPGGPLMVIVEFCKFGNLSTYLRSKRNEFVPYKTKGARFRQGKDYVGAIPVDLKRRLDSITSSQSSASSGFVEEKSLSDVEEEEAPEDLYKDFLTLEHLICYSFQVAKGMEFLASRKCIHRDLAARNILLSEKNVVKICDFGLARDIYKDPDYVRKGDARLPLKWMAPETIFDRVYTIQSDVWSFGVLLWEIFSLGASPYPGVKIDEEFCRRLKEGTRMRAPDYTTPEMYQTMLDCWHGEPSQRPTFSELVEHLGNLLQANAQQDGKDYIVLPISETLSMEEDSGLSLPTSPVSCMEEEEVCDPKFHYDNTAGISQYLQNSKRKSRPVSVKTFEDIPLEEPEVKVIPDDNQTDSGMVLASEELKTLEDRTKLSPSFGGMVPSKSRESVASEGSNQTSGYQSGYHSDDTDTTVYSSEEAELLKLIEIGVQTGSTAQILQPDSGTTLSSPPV
Summary of the method: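 Human KDR (VEGFR2) kinase inhibition was measured with Invitrogen's Z′-LYTE® method. A 2× mixture of KDR and Tyr 01 peptide is made in 50 mM HEPES pH 7.5, 0.01% BRIJ-35, 10 mM MgCl2, 1 mM EGTA. Each 10 μL reaction holds 0.5-11.7 ng enzyme and 2 μM Tyr 01. It incubates for 1 hour, then 5 μL of Development Reagent B diluted 1:256 is added.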

[4] = biological target: BRAF (Homo sapiens (Human), UniProt P15056); assay: Inhibitory activity against kinase BRAF, Z'-LYTE method (Invitrogen); type: biochemical; details: 1 μM compound
BRAF, sequence (P15056 whole entry): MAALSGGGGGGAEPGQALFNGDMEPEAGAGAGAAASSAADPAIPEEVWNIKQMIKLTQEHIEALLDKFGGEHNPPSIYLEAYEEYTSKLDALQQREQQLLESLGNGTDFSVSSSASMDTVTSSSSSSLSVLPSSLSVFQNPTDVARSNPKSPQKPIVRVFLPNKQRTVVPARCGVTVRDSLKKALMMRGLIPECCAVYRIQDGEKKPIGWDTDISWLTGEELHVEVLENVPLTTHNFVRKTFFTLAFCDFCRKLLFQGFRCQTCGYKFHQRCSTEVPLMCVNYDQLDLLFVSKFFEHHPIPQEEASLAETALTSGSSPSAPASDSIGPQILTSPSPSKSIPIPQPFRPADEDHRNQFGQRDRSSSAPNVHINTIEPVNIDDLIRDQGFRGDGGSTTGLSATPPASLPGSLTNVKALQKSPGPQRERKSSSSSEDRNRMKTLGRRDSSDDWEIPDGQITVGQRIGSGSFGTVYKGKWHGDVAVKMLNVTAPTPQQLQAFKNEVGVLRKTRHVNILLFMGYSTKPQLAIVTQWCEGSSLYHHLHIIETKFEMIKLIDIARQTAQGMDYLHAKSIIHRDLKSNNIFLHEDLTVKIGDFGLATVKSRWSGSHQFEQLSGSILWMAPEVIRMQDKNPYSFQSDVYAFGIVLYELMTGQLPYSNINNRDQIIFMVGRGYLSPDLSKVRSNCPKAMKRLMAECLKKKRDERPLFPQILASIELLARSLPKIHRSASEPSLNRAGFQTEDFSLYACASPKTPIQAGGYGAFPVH
Description: Inhibitory activities Inhibitory activities of compounds against BRAF, and BRAF V600E were measured by Invitrogen using Z′-LYTE® Method as briefly described in the following. 4× Test compounds are dissolved in 1% DMSO. […] ATP solutions are diluted to a 4×ATP working concentration in Kinase Buffer (50 mM HEPES pH 7.5, 0.01% BRIJ-35, 10 mM MgCl2, 1 mM EGTA). Reaction started by 30-second shaking of mixture consisting of 2.5 μL 4× test compound, […] and 2.5 μL 4×ATP Solution on Bar-coded Corning, low volume NBS, black 384-well plate (Corning Cat. #3676). Then the mixture was incubated for 60-minute at room temperature for the kinase reaction, followed by addition of 5 μL of a 1:1024 dilution of development reagent A and 30-second plate shake. The mixture was then incubated for another 60-minute at room temperature for development reaction. Fluorescence was read by plate reader. IC50 was calculated by plotting the concentration of compound vs the percentage of inhibition in treated wells using GraphPad Prism 5.
Table 2 and 3 show % inhibition at 1 μM of several compounds of the invention against BRAF and BRAF V600E, respectively, using Z′-LYTE® method.

[5] = biological target: BRAF V600E (Homo sapiens (Human), UniProt P15056, V600E); assay: Inhibitory activity against kinase BRAF V600E, Z'-LYTE method (Invitrogen); type: biochemical; details: for inhibition at 1 µM: read-out: Inhibition (% inhibition at 1 μM) against BRAF V600E
BRAF V600E, sequence (P15056 whole entry V600E): as the sequence (P15056 whole entry) above, with V600E counted along it
Summary of the method: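 FRET-based Z′-LYTE peptide-phosphorylation assay in 50 mM HEPES pH 7.5, 0.01% BRIJ-35, 10 mM MgCl2, 1 mM EGTA; kinase reaction 60 min at room temperature, then 60 min development before fluorescence read. IC50 from concentration vs % inhibition; single-point % inhibition tested at 1 μM.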

Row | SMILES | IC50 [1] | IC50 [2] | IC50 [3] | inhibition at 1 µM ([3]; 1 μM compound) | inhibition at 1 µM [4] | IC50 [5] | inhibition at 1 µM ([5]; 1 μM compound) | inhibition at 1 µM [3] | inhibition at 1 µM [5]
1 | O=C(Nc1cccc(Oc2ccc3nccnc3c2)c1)c1ccc(Cl)c(C(F)(F)F)c1 [Compound C006, 4-chloro-N-(3-(quinoxalin-6-yloxy)phenyl)-3-(trifluoromethyl)benzamide] | > 5 µM | > 5 µM |  | 70 to 89% | < 70% |  | > 89% |  | 
2 | O=C(Nc1cc(F)cc(Oc2ccc3nccnc3c2)c1)Nc1cccc(C(F)(F)F)c1 [Compound C021, 1-(3-fluoro-5-(quinoxalin-6-yloxy)phenyl)-3-(3-(trifluoromethyl)phenyl)urea] | 1 to 5 µM | < 2 µM |  | 70 to 89% | < 70% |  | > 89% |  | 
3 | O=C(Nc1cc(F)cc(Oc2ccc3ncc(N4CCOCC4)nc3c2)c1)c1cccc(C(F)(F)F)c1 [Compound C028, N-(3-fluoro-5-((3-morpholinoquinoxalin-6-yl)oxy)phenyl)-3-(trifluoromethyl)benzamide] | 1 to 5 µM | > 5 µM |  | 70 to 89% | < 70% |  | > 89% |  | 
4 | O=C(Nc1cccc(F)c1)Nc1ccc(F)c(Oc2ccc3ncc(N4CCOCC4)nc3c2)c1 [Compound C034, 1-(4-fluoro-3-((3-morpholinoquinoxalin-6-yl)oxy)phenyl)-3-(3-fluorophenyl)urea] | < 1 µM | > 5 µM |  | < 70% | < 70% |  | > 89% |  | 
5 | O=C(Nc1ccc(Cl)cc1)Nc1cccc(Oc2ccc3ncc(N4CCOCC4)nc3c2)c1 [Compound C048, 1-(4-chlorophenyl)-3-(3-((3-morpholinoquinoxalin-6-yl)oxy)phenyl)urea] | 1 to 5 µM | 2 to 5 µM |  | 70 to 89% | 70 to 89% |  | > 89% |  | 
6 | N#Cc1ccc(NC(=O)Nc2cccc(Oc3ccc4nccnc4c3)c2)cc1 [Compound C070, 1-(4-cyanophenyl)-3-(3-(quinoxalin-6-yloxy)phenyl)urea] | > 5 µM | > 5 µM |  | > 89% | > 89% |  | > 89% |  | 
7 | N#Cc1ccc(NC(=O)Nc2cccc(Oc3ccc4nccnc4c3)c2)cc1C(F)(F)F [Compound C073, 1-(4-cyano-3-(trifluoromethyl)phenyl)-3-(3-(quinoxalin-6-yloxy)phenyl)urea] | > 5 µM | 2 to 5 µM |  |  | < 70% |  |  | 70 to 89% | > 89%
8 | O=C(Nc1ccc(Oc2ccc3nccnc3c2)cc1)Nc1cccc(C(F)(F)F)c1 [Compound C075, 1-(4-(quinoxalin-6-yloxy)phenyl)-3-(3-(trifluoromethyl)phenyl)urea] | 1 to 5 µM | 2 to 5 µM | > 0.1 µM | 70 to 89% | < 70% | > 0.1 µM | > 89% |  | 
9 | O=C(Nc1ccc(Oc2ccc3ncc(N4CCNCC4)nc3c2)cc1)Nc1ccc(C(F)(F)F)cc1 [Compound C088, 1-(4-((3-(piperazin-1-yl)quinoxalin-6-yl)oxy)phenyl)-3-(4-(trifluoromethyl)phenyl)urea] | 1 to 5 µM | 2 to 5 µM |  | > 89% | < 70% |  | > 89% |  | 
10 | O=C(Nc1ccc(F)cc1)Nc1ccc(Oc2ccc3ncc(N4CCNCC4)nc3c2)cc1 [Compound C090, 1-(4-fluorophenyl)-3-(4-((3-(piperazin-1-yl)quinoxalin-6-yl)oxy)phenyl)urea] | 1 to 5 µM | < 2 µM |  | > 89% | 70 to 89% |  | > 89% |  | 
11 | O=C(Nc1ccc(Oc2ccc3ncc(N4CCNCC4)nc3c2)cc1)Nc1cccc(Cl)c1 [Compound C091, 1-(3-chlorophenyl)-3-(4-((3-(piperazin-1-yl)quinoxalin-6-yl)oxy)phenyl)urea] | 1 to 5 µM | 2 to 5 µM |  | > 89% | > 89% |  | > 89% |  | 

Continued, in another order:

Row | IC50 [1] | IC50 [2] | IC50 [3] | inhibition at 1 µM ([3]; 1 μM compound) | inhibition at 1 µM [4] | IC50 [5] | inhibition at 1 µM ([5]; 1 μM compound) | SMILES | inhibition at 1 µM [3] | inhibition at 1 µM [5]
12 | > 5 µM | > 5 µM | > 0.1 µM | 70 to 89% | 70 to 89% | < 0.1 µM | 70 to 89% | O=C(Nc1cccc(Oc2ccc3nccnc3c2)c1)c1cccc(C(F)(F)F)c1 [Compound C005, N-(3-(quinoxalin-6-yloxy)phenyl)-3-(trifluoromethyl)benzamide] |  | 
13 | 1 to 5 µM | > 5 µM |  | 70 to 89% | 70 to 89% |  | > 89% | O=C(Nc1cccc(Cl)c1)Nc1cccc(Oc2ccc3ncc(N4CCOCC4)nc3c2)c1 [Compound C047, 1-(3-chlorophenyl)-3-(3-((3-morpholinoquinoxalin-6-yl)oxy)phenyl)urea] |  | 
14 | 1 to 5 µM | > 5 µM |  | < 70% | < 70% |  | > 89% | O=C(Nc1cc(F)cc(F)c1)Nc1ccc(F)c(Oc2ccc3ncc(N4CCOCC4)nc3c2)c1 [Compound C054, 1-(3,5-difluorophenyl)-3-(4-fluoro-3-((3-morpholinoquinoxalin-6-yl)oxy)phenyl)urea] |  | 
15 | 1 to 5 µM | < 2 µM |  | > 89% | < 70% |  | > 89% | O=C(Nc1ccc(F)c(Oc2ccc3ncc(N4CCNCC4)nc3c2)c1)Nc1ccc(Cl)c(C(F)(F)F)c1 [Compound C066, 1-(4-chloro-3-(trifluoromethyl)phenyl)-3-(4-fluoro-3-((3-(piperazin-1-yl)quinoxalin-6-yl)oxy)phenyl)urea] |  | 
16 | > 5 µM | 2 to 5 µM |  | 70 to 89% | > 89% |  | > 89% | O=C(Nc1ccc(Cl)cc1)Nc1ccc(Oc2ccc3ncc(N4CCNCC4)nc3c2)cc1 [Compound C092, 1-(4-chlorophenyl)-3-(4-((3-(piperazin-1-yl)quinoxalin-6-yl)oxy)phenyl)urea] |  | 
17 | > 5 µM | > 5 µM |  | 70 to 89% | 70 to 89% |  | > 89% | O=C(Nc1cccc(Cl)c1)Nc1ccc(Oc2ccc3nccnc3c2)cc1F [Compound C093, 1-(3-chlorophenyl)-3-(2-fluoro-4-(quinoxalin-6-yloxy)phenyl)urea] |  | 
